≈ marks a conversion by molar mass, not a printed value.
Test system: VISA clinical isolates of MRSA (VI-MRSA) and of MSSA (VI-MSSA)
Experiment: microbe, parasite or virus in culture
Type: cell-based, Staphylococcus aureus
Procedure: Each of the bacterial strains listed in Table 1-1 was shake-cultured at 37° C. overnight in 4 mL of a medium (Tryptical Soy Broth: TSB, product of Becton Dickinson and Company). FDA209P was used as a control.
After completion of culturing, the resultant culture was suspended in a cation-adjusted Mueller Hinton Broth (CAMHB, product of Becton Dickinson and Company). Then, the obtained bacterial culture was adjusted in absorbance with the CAMHB so that the absorbance at 578 nm of the bacterial culture was adjusted to 0.3 measured by an absorption spectrometer. In addition, the resultant bacterial culture was 500-fold diluted with the CAMHB.
Each of the 500-fold diluted, pre-cultured bacterial cultures was added at 50 μL/well to the CAMHB containing the quinolones and the nybomycins at various concentrations (50 μL/well), followed by statically culturing at 37° C. overnight.
After completion of culturing, the growth of the bacteria was visually determined based on turbidity to measure MIC in each bacterial strain.
Here, the glycopeptides used were VCM and TEIC. The β-lactam used was OXA.

[1] = Staphylococcus aureus, 99/3700-W, VI-MRSA, The United Kingdom
[2] = Staphylococcus aureus, 99/3759-V, VI-MRSA, The United Kingdom
[3] = Staphylococcus aureus, 28160, VI-MRSA, South African Republic
[4] = Staphylococcus aureus, 98141, VI-MRSA, France
[5] = Staphylococcus aureus, A7 (JCSC4842), VI-MRSA, Taiwan
[6] = Staphylococcus aureus, AMC11094, VI-MRSA, Korea
[7] = Staphylococcus aureus, B7 (JCSC4852), VI-MRSA, Taiwan
[8] = Staphylococcus aureus, BR1, VI-MRSA, Brazil
[9] = Staphylococcus aureus, BR2, VI-MRSA, Brazil
[10] = Staphylococcus aureus, BR3, VI-MRSA, Brazil
[11] = Staphylococcus aureus, BR4, VI-MRSA, Brazil
[12] = Staphylococcus aureus, BR5, VI-MRSA, Brazil
[13] = Staphylococcus aureus, HIP06297, VI-MRSA, America
[14] = Staphylococcus aureus, HIP06854, VI-MRSA, America
[15] = Staphylococcus aureus, HIP07920, VI-MRSA, America
[16] = Staphylococcus aureus, HIP07930, VI-MRSA, America
[17] = Staphylococcus aureus, HIP08926, VI-MRSA, America
[18] = Staphylococcus aureus, HIP09143, VI-MRSA, America
[19] = Staphylococcus aureus, HIP09313, VI-MRSA, America
[20] = Staphylococcus aureus, HIP09433, VI-MRSA, America
[21] = Staphylococcus aureus, HIP09662, VI-MRSA, America
[22] = Staphylococcus aureus, HIP09735, VI-MRSA, America
[23] = Staphylococcus aureus, HIP09737, VI-MSSA, America
[24] = Staphylococcus aureus, HIP09740, VI-MRSA, America
[25] = Staphylococcus aureus, HIP10267, VI-MRSA, America
[26] = Staphylococcus aureus, HIP10540, VI-MRSA, America
[27] = Staphylococcus aureus, HIP12864, VI-MRSA, America
[28] = Staphylococcus aureus, HIP13036, VI-MRSA, America
[29] = Staphylococcus aureus, HIP13057, VI-MRSA, America
[30] = Staphylococcus aureus, IL (HIP7737), VI-MRSA, America
[31] = Staphylococcus aureus, JCSC7193, VI-MRSA, Thailand
[32] = Staphylococcus aureus, JCSC7195, VI-MRSA, Thailand
[33] = Staphylococcus aureus, JCSC7203, VI-MRSA, Thailand
[34] = Staphylococcus aureus, LIM2, VI-MRSA, France
[35] = Staphylococcus aureus, LY-1999-01, VI-MSSA, Oman
[36] = Staphylococcus aureus, LY-1999-03, VI-MRSA, Oman
[37] = Staphylococcus aureus, MI (HIP5827), VI-MRSA, America
[38] = Staphylococcus aureus, MRSA / MSSA / NRS 76 / VISA, NRS76, VI-MSSA, America
[39] = Staphylococcus aureus, MRSA / MSSA / NRS 79 / VISA, NRS79, VI-MRSA, America
[40] = Staphylococcus aureus, MRSA / MSSA / NRS 118 / VISA, NRS118, VI-MRSA, America
[41] = Staphylococcus aureus, MRSA / MSSA / NRS 126 / VISA, NRS126, VI-MRSA, America
[42] = Staphylococcus aureus, Mu3, VI-MRSA, Japan
[43] = Staphylococcus aureus, Mu50, VI-MRSA, Japan
[44] = Staphylococcus aureus, NJ (HIP5836), VI-MRSA, America
[45] = Staphylococcus aureus, P1V44, VI-MSSA, Belgium
[46] = Staphylococcus aureus, PC, VI-MRSA, America
[47] = Staphylococcus aureus, SA MER-S6, VI-MSSA, France
[48] = Staphylococcus aureus, SA MER-S12, VI-MSSA, France
[49] = Staphylococcus aureus, SA MER-S20, VI-MSSA, France

Cc1onc(-c2ccccc2)c1C(=O)N[C@@H]1C(=O)N2[C@@H]1SC(C)(C)[C@@H]2C(=O)O [OXA, oxacillin]
MIC [1]: 512 µg/mL (≈ 1280 µM) | MIC [2]: 512 µg/mL (≈ 1280 µM) | MIC [3]: 32 µg/mL (≈ 79.7 µM) | MIC [4]: > 128 µg/mL | MIC [5]: 128 µg/mL (≈ 319 µM) | MIC [6]: 512 µg/mL (≈ 1280 µM) | MIC [7]: 128 µg/mL (≈ 319 µM) | MIC [8]: 256 µg/mL (≈ 638 µM) | MIC [9]: 64 µg/mL (≈ 159 µM) | MIC [10]: 64 µg/mL (≈ 159 µM) | MIC [11]: 512 µg/mL (≈ 1280 µM) | MIC [12]: 512 µg/mL (≈ 1280 µM) | MIC [13]: 512 µg/mL (≈ 1280 µM) | MIC [14]: 128 µg/mL (≈ 319 µM) | MIC [15]: 128 µg/mL (≈ 319 µM) | MIC [16]: 32 µg/mL (≈ 79.7 µM) | MIC [17]: 512 µg/mL (≈ 1280 µM) | MIC [18]: 512 µg/mL (≈ 1280 µM) | MIC [19]: 512 µg/mL (≈ 1280 µM) | MIC [20]: 256 µg/mL (≈ 638 µM) | MIC [21]: 512 µg/mL (≈ 1280 µM) | MIC [22]: 512 µg/mL (≈ 1280 µM) | MIC [23]: 1 µg/mL (≈ 2.49 µM) | MIC [24]: 512 µg/mL (≈ 1280 µM) | MIC [25]: 4 µg/mL (≈ 9.96 µM) | MIC [26]: 64 µg/mL (≈ 159 µM) | MIC [27]: 1020 µg/mL (≈ 2550 µM) | MIC [28]: 32 µg/mL (≈ 79.7 µM) | MIC [29]: 4 µg/mL (≈ 9.96 µM) | MIC [30]: 64 µg/mL (≈ 159 µM) | MIC [31]: > 128 µg/mL | MIC [32]: > 128 µg/mL | MIC [33]: 128 µg/mL (≈ 319 µM) | MIC [34]: 32 µg/mL (≈ 79.7 µM) | MIC [35]: 1 µg/mL (≈ 2.49 µM) | MIC [36]: 1020 µg/mL (≈ 2550 µM) | MIC [37]: 512 µg/mL (≈ 1280 µM) | MIC [38]: 1 µg/mL (≈ 2.49 µM) | MIC [39]: 256 µg/mL (≈ 638 µM) | MIC [40]: 1020 µg/mL (≈ 2550 µM) | MIC [41]: 256 µg/mL (≈ 638 µM) | MIC [42]: 512 µg/mL (≈ 1280 µM) | MIC [43]: 512 µg/mL (≈ 1280 µM) | MIC [44]: 64 µg/mL (≈ 159 µM) | MIC [45]: 2 µg/mL (≈ 4.98 µM) | MIC [46]: 4 µg/mL (≈ 9.96 µM) | MIC [47]: 1 µg/mL (≈ 2.49 µM) | MIC [48]: 1 µg/mL (≈ 2.49 µM) | MIC [49]: 1 µg/mL (≈ 2.49 µM)

CN[C@H](CC(C)C)C(=O)N[C@H]1C(=O)N[C@@H](CC(N)=O)C(=O)N[C@H]2C(=O)N[C@H]3C(=O)N[C@H](C(=O)N[C@H](C(=O)O)c4cc(O)cc(O)c4-c4cc3ccc4O)[C@H](O)c3ccc(c(Cl)c3)Oc3cc2cc(c3O[C@@H]2O[C@H](CO)[C@@H](O)[C@H](O)[C@H]2O[C@H]2C[C@](C)(N)[C@H](O)[C@H](C)O2)Oc2ccc(cc2Cl)[C@H]1O [VCM, vancomycin]
MIC [1]: 2 µg/mL (≈ 1.38 µM) | MIC [2]: 2 µg/mL (≈ 1.38 µM) | MIC [3]: 4 µg/mL (≈ 2.76 µM) | MIC [4]: 2 µg/mL (≈ 1.38 µM) | MIC [5]: 3 µg/mL (≈ 2.07 µM) | MIC [6]: 4 µg/mL (≈ 2.76 µM) | MIC [7]: 4 µg/mL (≈ 2.76 µM) | MIC [8]: 2 µg/mL (≈ 1.38 µM) | MIC [9]: 4 µg/mL (≈ 2.76 µM) | MIC [10]: 8 µg/mL (≈ 5.52 µM) | MIC [11]: 8 µg/mL (≈ 5.52 µM) | MIC [12]: 8 µg/mL (≈ 5.52 µM) | MIC [13]: 4 µg/mL (≈ 2.76 µM) | MIC [14]: 4 µg/mL (≈ 2.76 µM) | MIC [15]: 2 µg/mL (≈ 1.38 µM) | MIC [16]: 4 µg/mL (≈ 2.76 µM) | MIC [17]: 4 µg/mL (≈ 2.76 µM) | MIC [18]: 4 µg/mL (≈ 2.76 µM) | MIC [19]: 4 µg/mL (≈ 2.76 µM) | MIC [20]: 2 µg/mL (≈ 1.38 µM) | MIC [21]: 4 µg/mL (≈ 2.76 µM) | MIC [22]: 4 µg/mL (≈ 2.76 µM) | MIC [23]: 4 µg/mL (≈ 2.76 µM) | MIC [24]: 1 µg/mL (≈ 0.69 µM) | MIC [25]: 4 µg/mL (≈ 2.76 µM) | MIC [26]: 4 µg/mL (≈ 2.76 µM) | MIC [27]: 4 µg/mL (≈ 2.76 µM) | MIC [28]: 8 µg/mL (≈ 5.52 µM) | MIC [29]: 4 µg/mL (≈ 2.76 µM) | MIC [30]: 4 µg/mL (≈ 2.76 µM) | MIC [31]: 4 µg/mL (≈ 2.76 µM) | MIC [32]: 1 µg/mL (≈ 0.69 µM) | MIC [33]: 2 µg/mL (≈ 1.38 µM) | MIC [34]: 2 µg/mL (≈ 1.38 µM) | MIC [35]: 4 µg/mL (≈ 2.76 µM) | MIC [36]: 4 µg/mL (≈ 2.76 µM) | MIC [37]: 8 µg/mL (≈ 5.52 µM) | MIC [38]: 2 µg/mL (≈ 1.38 µM) | MIC [39]: 2 µg/mL (≈ 1.38 µM) | MIC [40]: 8 µg/mL (≈ 5.52 µM) | MIC [41]: 4 µg/mL (≈ 2.76 µM) | MIC [42]: 0.5 µg/mL (≈ 0.345 µM) | MIC [43]: 8 µg/mL (≈ 5.52 µM) | MIC [44]: 8 µg/mL (≈ 5.52 µM) | MIC [45]: 2 µg/mL (≈ 1.38 µM) | MIC [46]: 8 µg/mL (≈ 5.52 µM) | MIC [47]: 4 µg/mL (≈ 2.76 µM) | MIC [48]: 4 µg/mL (≈ 2.76 µM) | MIC [49]: 4 µg/mL (≈ 2.76 µM)

Source: patent US20120258980A1, “Antibacterial Agent for Drug-Resistant Bacteria, Method for Screening for Same, and Use of Same” (priority 2009, published 2012)
